# Reference: the CheMixHub viscosity set
# ± gives the uncertainty stated by the source.
# Assay: xn = mol fraction of the nth substance listed
compound,measurement,setting,value
CCCCCCCC[n+]1ccn(C)c1.F[B-](F)(F)F + COC(C)=O,viscosity,"298.15 K, 101 kPa, x1 = 0.7036",69.93 ± 20 mPa·s
C1CCCCCCCCCCC1 + Cc1ccccc1,viscosity,"303 K, 101 kPa, x1 = 0.0186",0.5245 ± 0.0045 mPa·s
same,viscosity,"303 K, 101 kPa, x2 = 0.8099",0.6724 ± 0.0055 mPa·s
same,viscosity,"303 K, 101 kPa, x2 = 0.9012",0.5699 ± 0.0048 mPa·s
same,viscosity,"303 K, 101 kPa, x2 = 0.9426",0.5336 ± 0.0045 mPa·s
Cc1cccc2ccccc12 + Cc1ccccc1,viscosity,"298.15 K, 100 kPa, x2 = 0.2784",1.646 ± 0.16 mPa·s
same,viscosity,"298.15 K, 100 kPa, x2 = 0.6068",1.036 ± 0.099 mPa·s
same,viscosity,"298.15 K, 100 kPa, x2 = 0.8224",0.731 ± 0.069 mPa·s
same,viscosity,"313.15 K, 100 kPa, x2 = 0.2784",1.285 ± 0.12 mPa·s
same,viscosity,"313.15 K, 100 kPa, x2 = 0.6068",0.841 ± 0.08 mPa·s
same,viscosity,"313.15 K, 100 kPa, x2 = 0.8224",0.608 ± 0.058 mPa·s
O=[N+]([O-])c1ccccc1O + Cc1ccccc1,viscosity,"303.15 K, 101 kPa, x1 = 0.5473",1.278 ± 0.032 mPa·s
same,viscosity,"308.15 K, 101 kPa, x1 = 0.5473",1.182 ± 0.03 mPa·s
same,viscosity,"308.15 K, 101 kPa, x1 = 0.7633",1.838 ± 0.046 mPa·s
same,viscosity,"313.15 K, 101 kPa, x1 = 0.5473",1.088 ± 0.027 mPa·s
same,viscosity,"313.15 K, 101 kPa, x1 = 0.7633",1.672 ± 0.042 mPa·s
same,viscosity,"318.15 K, 101 kPa, x1 = 0.5473",1.011 ± 0.025 mPa·s
same,viscosity,"318.15 K, 101 kPa, x1 = 0.7633",1.528 ± 0.039 mPa·s
same,viscosity,"323.15 K, 101 kPa, x1 = 0.5473",0.942 ± 0.024 mPa·s
same,viscosity,"323.15 K, 101 kPa, x1 = 0.7633",1.411 ± 0.036 mPa·s
CC1CCCCC1=O (configuration not stated) + NC=O,viscosity,"303.15 K, 100 kPa, x1 = 0.1005",2.822 ± 0.065 mPa·s
same,viscosity,"303.15 K, 100 kPa, x1 = 0.1979",2.768 ± 0.063 mPa·s
same,viscosity,"303.15 K, 100 kPa, x1 = 0.2917",2.712 ± 0.062 mPa·s
same,viscosity,"303.15 K, 100 kPa, x1 = 0.4002",2.644 ± 0.06 mPa·s
same,viscosity,"303.15 K, 100 kPa, x1 = 0.5089",2.575 ± 0.059 mPa·s
same,viscosity,"303.15 K, 100 kPa, x1 = 0.6019",2.513 ± 0.057 mPa·s
same,viscosity,"303.15 K, 100 kPa, x1 = 0.6999",2.446 ± 0.056 mPa·s
same,viscosity,"303.15 K, 100 kPa, x1 = 0.8001",2.375 ± 0.054 mPa·s
same,viscosity,"303.15 K, 100 kPa, x1 = 0.9001",2.302 ± 0.052 mPa·s
same,viscosity,"308.15 K, 100 kPa, x1 = 0.1005",2.583 ± 0.059 mPa·s
same,viscosity,"308.15 K, 100 kPa, x1 = 0.1979",2.549 ± 0.059 mPa·s
same,viscosity,"308.15 K, 100 kPa, x1 = 0.2917",2.513 ± 0.058 mPa·s
same,viscosity,"308.15 K, 100 kPa, x1 = 0.4002",2.468 ± 0.056 mPa·s
same,viscosity,"308.15 K, 100 kPa, x1 = 0.5089",2.42 ± 0.055 mPa·s
same,viscosity,"308.15 K, 100 kPa, x1 = 0.6019",2.378 ± 0.054 mPa·s
same,viscosity,"308.15 K, 100 kPa, x1 = 0.6999",2.331 ± 0.053 mPa·s
same,viscosity,"308.15 K, 100 kPa, x1 = 0.8001",2.281 ± 0.052 mPa·s
same,viscosity,"308.15 K, 100 kPa, x1 = 0.9001",2.228 ± 0.051 mPa·s
same,viscosity,"313.15 K, 100 kPa, x1 = 0.1005",2.346 ± 0.054 mPa·s
same,viscosity,"313.15 K, 100 kPa, x1 = 0.1979",2.332 ± 0.054 mPa·s
same,viscosity,"313.15 K, 100 kPa, x1 = 0.2917",2.315 ± 0.053 mPa·s
same,viscosity,"313.15 K, 100 kPa, x1 = 0.4002",2.291 ± 0.052 mPa·s
same,viscosity,"313.15 K, 100 kPa, x1 = 0.5089",2.265 ± 0.052 mPa·s
same,viscosity,"313.15 K, 100 kPa, x1 = 0.6019",2.242 ± 0.051 mPa·s
same,viscosity,"313.15 K, 100 kPa, x1 = 0.6999",2.217 ± 0.05 mPa·s
same,viscosity,"313.15 K, 100 kPa, x1 = 0.8001",2.188 ± 0.05 mPa·s
same,viscosity,"313.15 K, 100 kPa, x1 = 0.9001",2.154 ± 0.049 mPa·s
CN(C)CCCO + NCCCO,viscosity,"293.15 K, 100 kPa, x2 = 0.1",8.883 ± 0.45 mPa·s
same,viscosity,"293.15 K, 100 kPa, x2 = 0.1998",10.61 ± 0.54 mPa·s
same,viscosity,"293.15 K, 100 kPa, x2 = 0.2997",12.71 ± 0.64 mPa·s
same,viscosity,"293.15 K, 100 kPa, x2 = 0.4008",15.1 ± 0.76 mPa·s
same,viscosity,"293.15 K, 100 kPa, x2 = 0.5",18.49 ± 0.93 mPa·s
same,viscosity,"293.15 K, 100 kPa, x2 = 0.5024",18.49 ± 0.93 mPa·s
same,viscosity,"293.15 K, 100 kPa, x2 = 0.6004",21.41 ± 1.1 mPa·s
same,viscosity,"293.15 K, 100 kPa, x2 = 0.7021",24.67 ± 1.2 mPa·s
same,viscosity,"293.15 K, 100 kPa, x2 = 0.7992",29.63 ± 1.5 mPa·s
same,viscosity,"293.15 K, 100 kPa, x2 = 0.9007",34.66 ± 1.7 mPa·s
same,viscosity,"303.15 K, 100 kPa, x2 = 0.1",6.062 ± 0.31 mPa·s
same,viscosity,"303.15 K, 100 kPa, x2 = 0.1998",7.04 ± 0.36 mPa·s
same,viscosity,"303.15 K, 100 kPa, x2 = 0.2997",8.322 ± 0.42 mPa·s
same,viscosity,"303.15 K, 100 kPa, x2 = 0.4008",9.824 ± 0.5 mPa·s
same,viscosity,"303.15 K, 100 kPa, x2 = 0.5",11.73 ± 0.81 mPa·s
same,viscosity,"303.15 K, 100 kPa, x2 = 0.5024",11.73 ± 0.81 mPa·s
same,viscosity,"303.15 K, 100 kPa, x2 = 0.6004",13.48 ± 0.68 mPa·s
same,viscosity,"303.15 K, 100 kPa, x2 = 0.7021",15.36 ± 0.78 mPa·s
same,viscosity,"303.15 K, 100 kPa, x2 = 0.7992",18.09 ± 0.91 mPa·s
same,viscosity,"303.15 K, 100 kPa, x2 = 0.9007",20.64 ± 1 mPa·s
same,viscosity,"313.15 K, 100 kPa, x2 = 0.1",4.35 ± 0.22 mPa·s
same,viscosity,"313.15 K, 100 kPa, x2 = 0.1998",5.099 ± 0.26 mPa·s
same,viscosity,"313.15 K, 100 kPa, x2 = 0.2997",5.838 ± 0.29 mPa·s
same,viscosity,"313.15 K, 100 kPa, x2 = 0.4008",6.628 ± 0.33 mPa·s
same,viscosity,"313.15 K, 100 kPa, x2 = 0.5",7.819 ± 0.49 mPa·s
same,viscosity,"313.15 K, 100 kPa, x2 = 0.5024",7.819 ± 0.49 mPa·s
same,viscosity,"313.15 K, 100 kPa, x2 = 0.6004",8.782 ± 0.44 mPa·s
same,viscosity,"313.15 K, 100 kPa, x2 = 0.7021",9.908 ± 0.5 mPa·s
same,viscosity,"313.15 K, 100 kPa, x2 = 0.7992",11.62 ± 0.59 mPa·s
same,viscosity,"313.15 K, 100 kPa, x2 = 0.9007",13.22 ± 0.67 mPa·s
same,viscosity,"323.15 K, 100 kPa, x2 = 0.1",3.23 ± 0.16 mPa·s
same,viscosity,"323.15 K, 100 kPa, x2 = 0.1998",3.72 ± 0.19 mPa·s
same,viscosity,"323.15 K, 100 kPa, x2 = 0.2997",4.206 ± 0.21 mPa·s
same,viscosity,"323.15 K, 100 kPa, x2 = 0.4008",4.668 ± 0.24 mPa·s
same,viscosity,"323.15 K, 100 kPa, x2 = 0.5",5.389 ± 0.27 mPa·s
same,viscosity,"323.15 K, 100 kPa, x2 = 0.5024",5.389 ± 0.27 mPa·s
same,viscosity,"323.15 K, 100 kPa, x2 = 0.6004",6.034 ± 0.3 mPa·s
same,viscosity,"323.15 K, 100 kPa, x2 = 0.7021",6.779 ± 0.34 mPa·s
same,viscosity,"323.15 K, 100 kPa, x2 = 0.7992",7.862 ± 0.4 mPa·s
same,viscosity,"323.15 K, 100 kPa, x2 = 0.9007",8.889 ± 0.45 mPa·s
